Data published in ChEMBL document CHEMBL5137135, “Highly Oxidized Germacranolides from Elephantopus tomentosus and the Configurational Revision of Some Previously Reported Analogues” (J Nat Prod, 2022).
Activity calls are given as the source filed them. The calls are words filed in the database; no cut-off is given here.

Assays:
Type in all cases: functional, cell-based
Hep 3B2 [1] = experiment: Cytotoxicity against human Hep3B cells assessed as inhibition of cell growth by MTT assay
HepG2 [2] = experiment: Cytotoxicity against human HepG2 cells assessed as inhibition of cell growth by MTT assay
HepG2 [3] = experiment: Induction of apoptosis in human HepG2 cells at 1 to 4 uM after 48 hrs by Hoechst 33258 staining based assay; conditions: dose 1-4 µM
HepG2 [4] = experiment: Induction of apoptosis in human HepG2 cells assessed as cellular shrinkage at 1 to 4 uM after 48 hrs by phase contrast microscopic analysis; conditions: dose 1-4 µM
Hep 3B2 [5] = experiment: Induction of mitochondrial membrane potential loss in human Hep3B cells by JC-1 staining based fluorescence assay
Hep 3B2 [6] = experiment: Induction of apoptosis in human Hep3B cells at 1 to 4 uM after 48 hrs by Hoechst 33258 staining based assay; conditions: dose 1-4 µM
Hep 3B2 [7] = experiment: Induction of apoptosis in human Hep3B cells assessed as membrane blebbing at 1 to 4 uM after 48 hrs by phase contrast microscopic analysis; conditions: dose 1-4 µM
HepG2 [8] = experiment: Induction of mitochondrial membrane potential loss in human HepG2 cells by JC-1 staining based fluorescence assay
Hep 3B2 [9] = experiment: Induction of apoptosis in human Hep3B cells assessed as cellular shrinkage at 1 to 4 uM after 48 hrs by phase contrast microscopic analysis; conditions: dose 1-4 µM
HepG2 [10] = experiment: Induction of apoptosis in human HepG2 cells assessed as membrane blebbing at 1 to 4 uM after 48 hrs by phase contrast microscopic analysis; conditions: dose 1-4 µM

| SMILES | IC50 (Hep 3B2 [1]) [µM] | IC50 (HepG2 [2]) [µM] | further results |
| --- | --- | --- | --- |
| C=C(C)C(=O)O[C@H]1C/C(C)=C\[C@@]2(c3cccc(O)c3O)C=C(C)[C@@H](O2)[C@H]2OC(=O)C(=C)[C@@H]21 | 5.6 | 4.3 |  |
| C=C1C(=O)O[C@H]2[C@H]1[C@@H](OC(=O)/C(C)=C\C)C/C(C)=C\[C@@]1(OC)C=C(C)[C@H]2O1 | 3.8 | 3.5 |  |
| C=C(C)C(=O)O[C@H]1C/C(C)=C\[C@@]2(OC)C=C(C)[C@@H](O2)[C@H]2OC(=O)[C@@H](COC)[C@@H]21 | > 10 | > 10 |  |
| C=C1C(=O)O[C@H]2[C@H]1[C@@H](OC(=O)/C(C)=C/C)C/C(C)=C\[C@@]1(c3ccc(O)c(O)c3)C=C(C)[C@H]2O1 | 3.6 | 3 |  |
| C=C(C)C(=O)O[C@H]1C/C(C)=C\[C@@]2(c3ccc(O)c(O)c3)C=C(C)[C@@H](O2)[C@H]2OC(=O)C(=C)[C@@H]21 | 3.7 | 5.7 |  |
| C=C1C[C@H](OC(=O)C(=C)C)[C@H]2C(=C)C(=O)O[C@@H]2[C@@H]2O[C@@](OC)(C1)C[C@@]2(C)O | 2.4 | 8.1 |  |
| C/C=C(\C)C(=O)O[C@H]1C/C(C)=C\[C@@]2(OC)C=C(C)[C@@H](O2)[C@H]2OC(=O)[C@@H](CO)[C@@H]21 | > 10 | > 10 |  |
| C/C=C(/C)C(=O)O[C@H]1C/C(C)=C\[C@@]2(OC)C=C(C)[C@@H](O2)[C@H]2OC(=O)[C@@H](COC)[C@@H]21 | > 10 | > 10 |  |
| C=C(C)C(=O)O[C@H]1C/C(C)=C\[C@@]2(OC)C=C(C)[C@@H](O2)[C@H]2OC(=O)C(=C)[C@@H]21 | 8.5 | 3.8 |  |
| C=C1C[C@H](OC(=O)/C(C)=C/C)[C@H]2C(=C)C(=O)O[C@@H]2[C@@H]2O[C@@](O)(C1)C[C@@]2(C)O | 3.1 | 8.7 |  |
| C=C1C[C@H](OC(=O)C(=C)C)[C@H]2C(=C)C(=O)O[C@@H]2[C@@H]2O[C@@](O)(C1)C[C@@]2(C)O | 6.6 | 7.3 |  |
| C=C1C[C@H](OC(=O)/C(C)=C/C)[C@H]2C(=C)C(=O)O[C@@H]2[C@@H]2O[C@@](OC)(C1)C[C@@]2(C)O | 9.5 | 9.8 |  |
| C=C1C[C@H](OC(=O)/C(C)=C/C)[C@H]2C(=C)C(=O)O[C@@H]2[C@@H]2O[C@](OC)(C=C2C)C1 | 8.5 | 3.8 |  |
| C=C1C[C@H](OC(=O)C(=C)C)[C@H]2C(=C)C(=O)O[C@@H]2[C@@H]2O[C@@](O)(C1)C[C@@]2(C)OC | 7.5 | 8.5 |  |
| C=C1C[C@H](OC(=O)C(=C)C)[C@H]2C(=C)C(=O)O[C@@H]2[C@@H]2O[C@](OC)(C=C2C)C1 | 2.4 | 2.2 | Activity (HepG2 [3]): Active; Activity (HepG2 [4]): Active; Activity (Hep 3B2 [5]): Active; Activity (Hep 3B2 [6]): Active; Activity (Hep 3B2 [7]): Active; Activity (HepG2 [8]): Active; Activity (Hep 3B2 [9]): Active; Activity (HepG2 [10]): Active |
| C=C1C(=O)O[C@H]2[C@H]1[C@@H](OC(=O)/C(C)=C/C)C/C(C)=C\[C@@]1(OC)C=C(C)[C@H]2O1 | 5 | 9.7 |  |
| C=C1C(=O)O[C@H]2[C@H]1[C@@H](OC(=O)/C(C)=C/C)C/C(C)=C\[C@@]1(c3cccc(O)c3O)C=C(C)[C@H]2O1 | 5.8 | 4.5 |  |
